Here are results for 18 molecules from PubChem BioAssay (NCI).

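48-hour exposure; five concentrations; linearly interpolated endpoints. TGI denotes the concentration required for complete inhibition of growth.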 Some results are limits rather than exact numbers.

Some test systems named below: A549 NSCLC; HL-60(TB) leukemia; MDA-N; SF-268 CNS; U251 CNS; HOP-62 NSCLC; NCI-H23 lung.
What all share (assay): NCI tumour cell line growth inhibition, 48 h

In the case of `C=C(C)[C@@H]1CCC2=C[C@H](CC(C)=CC3=CC(C)=C(O3)[C@@H]1OC)OC2=O`, the TGI in the test on A549 NSCLC, with HL-60(TB) leukemia, in the test with MDA-N, in the test on SF-268 CNS and in the test with U251 CNS was greater than 100 µM each time.
For `CC(C)(C)[C@H]1CCC2(OCCO2)[C@](O)(CCCO)C1`, the TGI in the test with A549 NSCLC, with HL-60(TB) leukemia, in the test with HOP-62 NSCLC, in the test with MDA-N, in the test on NCI-H23 lung and with SF-268 CNS was greater than 100 µM throughout. This molecule also displayed a TGI with U251 CNS greater than 100 µM.
In the case of `O=C1CCCC2=C1CC1=C(CCCC1=O)N2c1ccccc1`, the TGI with A549 NSCLC, with HL-60(TB) leukemia, with NCI-H23 lung, in the test on SF-268 CNS and in the test with U251 CNS was greater than 100 µM throughout.
Consider `COc1cc2c(cc1OC)-c1cc3cc(OC)c(OC)cc3c(=O)n1CC2`, for which the TGI in the test with A549 NSCLC is greater than 100 µM; with HL-60(TB) leukemia it was greater than 100 µM; with HOP-62 NSCLC it was greater than 72.8 µM; in the test on MDA-N it was greater than 100 µM; in the test on NCI-H23 lung it was greater than 100 µM; with SF-268 CNS, greater than 100 µM. Moreover, the TGI in the test on U251 CNS is greater than 100 µM.
For `Clc1nc(Cl)c(CBr)c(Cl)n1`, the TGI was 35.2 µM in the test with A549 NSCLC; greater than 100 µM in the test with HL-60(TB) leukemia; 9.72 µM in the test with HOP-62 NSCLC; 13.2 µM in the test with MDA-N; 31.2 µM in the test on NCI-H23 lung; 23.1 µM in the test with SF-268 CNS. In addition, the TGI with U251 CNS stood at 14.6 µM.
In the case of `CCOC(=O)C(C(=O)OCC)=C1NC2(c3ccccc3Nc3ccc(C)cc32)C(C(=O)OC)S1` (configuration not stated), the TGI in the test on A549 NSCLC, with HL-60(TB) leukemia, in the test with HOP-62 NSCLC, in the test on MDA-N, with NCI-H23 lung and with SF-268 CNS was greater than 100 µM each time. In the test with U251 CNS, this molecule gave a TGI greater than 100 µM.
Take `NC(=O)c1nnsc1NC=O`: the TGI in the test with A549 NSCLC, in the test on HL-60(TB) leukemia, in the test with HOP-62 NSCLC, in the test on MDA-N, in the test with NCI-H23 lung and in the test with SF-268 CNS was greater than 100 µM throughout. The same molecule displayed a TGI in the test with U251 CNS greater than 100 µM.
As to `CC(NC(=O)C(N)CC(=O)O)NC(=O)N(C)C(C)(C)C` (configuration not stated), the TGI with A549 NSCLC, in the test with HL-60(TB) leukemia, in the test on HOP-62 NSCLC, with MDA-N, in the test on NCI-H23 lung and in the test on SF-268 CNS was greater than 100 µM throughout. In the test on U251 CNS, the TGI is greater than 100 µM.
As for `CCc1nc2ccc(C(F)(F)F)cc2[nH]c1=O`, the TGI with A549 NSCLC, in the test with HL-60(TB) leukemia, in the test on HOP-62 NSCLC, with MDA-N, with NCI-H23 lung and in the test with SF-268 CNS was greater than 100 µM each time. The molecule further returned a TGI in the test on U251 CNS greater than 100 µM.
For `O=C(OCc1ccccc1)N1CCN(C(=O)OCc2ccccc2)CCN(C(=O)OCc2ccccc2)CCN(C(=O)OCc2ccccc2)CCN(C(=O)OCc2ccccc2)CC1`, the TGI in the test on A549 NSCLC, in the test on HOP-62 NSCLC, in the test on MDA-N and with U251 CNS was greater than 100 µM in each case.
For `COC(=O)c1ccccc1C1CN=NC12Cc1cccc(C)c1C2=O` (configuration not stated), the TGI in the test with A549 NSCLC was greater than 100 µM; in the test on HL-60(TB) leukemia, 72.1 µM; in the test on HOP-62 NSCLC it was greater than 100 µM; in the test on MDA-N, greater than 100 µM; in the test on NCI-H23 lung, greater than 100 µM; with SF-268 CNS, greater than 100 µM. This molecule also yielded a TGI in the test with U251 CNS greater than 100 µM.
With `CC1(CC2=C(C(=O)NCCO[Si](C)(C)C(C)(C)C)C3(OCCO3)C2=O)OCCO1`, the TGI in the test on A549 NSCLC, in the test with HL-60(TB) leukemia, in the test with HOP-62 NSCLC, with MDA-N, in the test on NCI-H23 lung and in the test on SF-268 CNS was greater than 100 µM each time. In the test on U251 CNS, this molecule gave a TGI greater than 100 µM.
As for `CC(=O)OCC1=C(C)C[C@H]([C@@H](COC(C)=O)C2CCC3C4C[C@H]5O[C@]56CC=CC(=O)[C@]6(C)C4CC[C@@]32C)OC1=O` (some centres not stated), the TGI in the test with A549 NSCLC came out at 7.12 µM; in the test on HL-60(TB) leukemia, 0.198 µM; in the test with HOP-62 NSCLC, 1.91 µM; in the test on MDA-N, 0.675 µM; with NCI-H23 lung, 3.59 µM; in the test with SF-268 CNS, 6.78 µM. In addition, the TGI in the test on U251 CNS was determined as 1.05 µM.
In the case of `C#CCn1c(=O)c(Cl)cn(/C(=C/C(=O)OCC)C(=O)OCC)c1=O`, the TGI is greater than 62.8 µM in the test on A549 NSCLC; 8.21 µM with HL-60(TB) leukemia; 37.8 µM with HOP-62 NSCLC; 29.9 µM in the test on MDA-N; 42.6 µM in the test on NCI-H23 lung; 51.1 µM in the test on SF-268 CNS. The molecule also showed a TGI with U251 CNS of 35 µM.
With `O=[N+]([O-])c1c2nc3n(c2cc2c1nc1n2CCC1)CCC3`, the TGI in the test on A549 NSCLC, in the test on HL-60(TB) leukemia, in the test on HOP-62 NSCLC, in the test on MDA-N, in the test with NCI-H23 lung and in the test on SF-268 CNS was greater than 100 µM each time. The molecule further had a TGI in the test with U251 CNS greater than 100 µM.
On to `CCSc1nc(N)c2c(-c3ccccc3)c3c(nc2n1)CCC3`, for which the TGI in the test on A549 NSCLC, in the test with HL-60(TB) leukemia, in the test with HOP-62 NSCLC, in the test with MDA-N, in the test on NCI-H23 lung and in the test with SF-268 CNS was greater than 100 µM in each case. The TGI in the test with U251 CNS is greater than 100 µM.
`CCOC(=O)Cn1c(=O)c2cc(-c3ccccc3)cc3c(Cl)nc4c(OC)c(OC)cc1c4c32`: the TGI in the test on A549 NSCLC was greater than 100 µM; in the test on HL-60(TB) leukemia it was 27.4 µM; in the test with HOP-62 NSCLC, greater than 100 µM; in the test on MDA-N it was 43.2 µM; in the test on NCI-H23 lung it was 36.2 µM; in the test with SF-268 CNS it was 29.2 µM. Moreover, in the test with U251 CNS, the TGI was greater than 100 µM.
Regarding `NC1CC(=O)c2sccc21` (configuration not stated), the TGI in the test with A549 NSCLC, with HOP-62 NSCLC, with NCI-H23 lung, in the test on SF-268 CNS and in the test with U251 CNS was greater than 100 µM each time.
